Reference: patent publication US20150057261A1, “AZETIDINE DERIVATIVES AS SPHINGOSINE-1 PHOSPHATE RECEPTORS MODULATORS” (Allergan, Inc., priority 2013, published 2015)

Each compound was assayed against T1, human S1P1 receptor (Homo sapiens, UniProt P21453) (assay: GTP γ35S binding assay for S1P1 activity). Settings: membranes of cells stably expressing the S1P1 receptor.
T1 construct: expressed in transfected cells; membranes used
Type: biochemical
Procedure: Compounds were synthesized and tested for S1P1 activity using the GTP γ^35S binding assay. These compounds may be assessed for their ability to activate or block activation of the human S1P1 receptor in cells stably expressing the S1P1 receptor.
GTP γ^35S binding was measured in the medium containing (mM) HEPES 25, pH 7.4, MgCl2 10, NaCl 100, dithiothreitol 0.5, digitonin 0.003%, 0.2 nM GTP γ^35S, and 5 μg membrane protein in a volume of 150 μl. Test compounds were included in the concentration range from 0.08 to 5,000 nM unless indicated otherwise. Membranes were incubated with 100 μM 5′-adenylylimidodiphosphate for 30 min, and subsequently with 10 μM GDP for 10 min on ice. Drug solutions and membrane were mixed, and then reactions were initiated by adding GTP γ^35S and continued for 30 min at 25° C. Reaction mixtures were filtered over Whatman GF/B filters under vacuum, and washed three times with 3 mL of ice-cold buffer (HEPES 25, pH7.4, MgCl2 10 and NaCl 100). Filters were dried and mixed with scintillant, and counted for ^35S activity using a β-counter. Agonist-induced GTP γ^35S binding was obtained by subtracting that in the absence of agonist. Binding data were analyzed using a non-linear regression method. In case of antagonist assay, the reaction mixture contained 10 nM […] in the presence of test antagonist at concentrations ranging from 0.08 to 5000 nM.

T1 sequence (P21453 whole entry): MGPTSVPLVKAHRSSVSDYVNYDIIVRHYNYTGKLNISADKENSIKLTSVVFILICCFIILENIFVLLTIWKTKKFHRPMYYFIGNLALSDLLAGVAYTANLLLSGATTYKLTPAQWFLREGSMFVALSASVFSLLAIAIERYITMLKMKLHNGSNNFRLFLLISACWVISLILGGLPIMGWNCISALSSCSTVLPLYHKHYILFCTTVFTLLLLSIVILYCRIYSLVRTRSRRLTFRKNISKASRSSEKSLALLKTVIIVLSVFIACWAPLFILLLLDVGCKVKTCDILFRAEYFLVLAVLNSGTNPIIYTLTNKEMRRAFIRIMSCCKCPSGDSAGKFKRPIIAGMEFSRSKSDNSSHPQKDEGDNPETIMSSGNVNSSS

Structure (SMILES) | EC50 [nM]
Cc1ccc(CC(CCCCc2ccc(CN3CC(C(=O)O)C3)cc2)c2cccc(Cl)c2)cc1C (stereo not drawn) [Compound 1, 1-{4-[5-(3-Chlorophenyl)-6-(3,4-dimethylphenyl)hexyl]benzyl}azetidine-3-carboxylic acid] | 64.5
Cc1ccc(CC(CCCc2ccc(CN3CC(C(=O)O)C3)cc2)c2cccc(Cl)c2)cc1C (stereo not drawn) [Compound 2, 1-{4-[4-(3-Chlorophenyl)-5-(3,4-dimethylphenyl)pentyl]benzyl}azetidine-3-carboxylic acid] | 17.1
Cc1ccc(CC(CCCCc2ccc(CN3CC(C(=O)O)C3)cc2)c2cc(F)cc(F)c2)cc1C (stereo not drawn) [Compound 3, 1-{4-[5-(3,5-Difluorophenyl)-6-(3,4-dimethylphenyl)hexyl]benzyl}azetidine-3-carboxylic acid] | 7.33
